For this experiment, the target named is T1, leukotriene induced contraction of guinea pig tracheal tissues (LTD4) (Cavia porcellus, UniProt Q2NNR5).
T1 construct: Guinea pig (adult male albino Hartley strain) tracheal spiral strips; from tissue; host or cells: guinea pig (adult male albino Hartley strain) tracheal spiral strips
T1 sequence (Q2NNR5 1-340): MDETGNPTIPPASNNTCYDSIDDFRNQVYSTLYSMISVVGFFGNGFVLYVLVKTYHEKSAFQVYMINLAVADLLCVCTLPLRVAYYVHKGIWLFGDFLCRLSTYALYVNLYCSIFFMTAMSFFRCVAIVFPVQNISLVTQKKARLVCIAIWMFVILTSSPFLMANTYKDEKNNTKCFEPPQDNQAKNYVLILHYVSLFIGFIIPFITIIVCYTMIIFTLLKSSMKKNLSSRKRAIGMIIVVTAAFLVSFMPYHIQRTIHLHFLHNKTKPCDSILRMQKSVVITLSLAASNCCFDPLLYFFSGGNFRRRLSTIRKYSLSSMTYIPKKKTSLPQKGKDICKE
The experiment can be described thus: Inhibition of LTD4-induced contraction of guinea pig tracheal spiral strips in vitro (leukotriene antagonist activity). In kind it is cell-based. The note with it: LTD4 cumulative concentration-response, 30 min pretreatment with test compound, meclofenamic acid 1 μM, pA2 = -log KB from EC30 (30% of carbachol contraction). As for the experimental part:
The leukotriene antagonist activity of the compounds of this invention is measured by the ability of the compound to inhibit leukotriene induced contraction of guinea pig tracheal tissues in vitro. The following methodology was employed:
In vitro: Guinea pig (adult male albino Hartley strain) tracheal spiral strips of approximate dimensions 2 to 3 mm cross-sectional width and 3.5 cm length were bathed in modified Krebs buffer in jacketed 10 ml tissue bath and continously aerated with 95% O2 /5% CO2. The tissues were connected via silk suture to force displacement transducers for recording isometric tension. The tissues were equilibrated for 1 hr., pretreated for 15 minutes with meclofenamic acid (1 μM) to remove intrinsic prostaglandin responses, and then pretreated for an additional 30 minutes with either the test compound or vehicle control. A cumulative concentration-response curve for LTD4 on triplicate tissues was generated by successive increases in the bath concentration of the LTD4. […]
Calculations: The averages of the triplicate LTD4 concentration-response curves both in the presence and absence of the test compound were plotted on log graph paper. The concentration of LTD4 needed to elicit 30% of the contraction elicited by carbachol was measured and defined as the EC30. The pA2 value for the test compound was determined by the following equations: [formula] […]

The Kb is the affinity of an antagonist, worked out from how it opposes an agonist.

For the compound `CCCCCCCCCCCC/C=C\C(SCCC(=O)O)C(O)CO` (stereo not shown) [3-[(2-Carboxyethyl)thio]-4(Z)-heptadecen-1,2-diol], the Kb is 6.31 µM.

For the origin of these results see US4552893A, “Leukotriene antagonists” (SmithKline Beckman Corporation, priority 1983, dated 1985).
